# From US20060063774A1, “Phosphodiesterase inhibitor compounds and nitric oxide donors” (priority 2004, published 2006)
# System: human corpus cavernosum tissue
# Experiment: In vitro comparative relaxation responses in phenylephrine-contracted human corpus cavernosum tissue strips (organ chamber, isometric tension)
# Type: cell-based
# Conditions: 10 μM and 30 μM, cumulative additions; tissue contracted with phenylephrine 7×10^−7 M; −100% = tone after papaverine 10^−4 M; comparator equimolar dipyridamole; FIG. 40
# From the text: FIG. 40 Graph of comparative in vitro relaxation effects of dipyridamole and Example 1 in phenylephrine induced contacted human corpus cavernosum tissue.
# Human corpus cavernosum tissue biopsies were obtained at the time of penile prosthesis implantation from impotent men. The tissue was maintained in a chilled Krebs-bicarbonate solution prior to assay. The tissue was cut into strips of 0.3×0.3×1 cm and suspended in organ chambers for isometric tension measurement. Tissues were incrementally stretched until optimal isometrtic tension for contraction was obtained. Once this was achieved, the tissues were contracted with phenylephine (7×10^−7 M) and once a stable contraction was achieved, the tissues were exposed to either dipyridamole or Example 1 (10^−6 to 3×10^−5 M) by cumulative additions to the chamber. At the end of the experiment papaverine (10^−4 M) is added to obtain maximal relaxation. […] Data are expressed as the percent loss in tone from the phenylephrine-induced contraction (0%=phenylephrine contraction; −100%=tone after the administration of papaverine).
smiles,measurement,value
"CC(C)(CC(=O)OCCN(CCOC(=O)CC(C)(C)SN=O)c1nc(N2CCCCC2)c2nc(N(CCOC(=O)CC(C)(C)SN=O)CCOC(=O)CC(C)(C)SN=O)nc(N3CCCCC3)c2n1)SN=O [Example 1, 2,6-bis(diethyl(3-methyl-3(nitrosothiol)butyric acid ester)amino)-4,8-dipiperidinopyrimido-[5,4-d]-pyrimidine]","relaxation of the phenylephrine-induced contraction (percent loss in tone), compared with dipyridamole",more efficacious in relaxing the phenylephrine-induced contaction than is an equimolar dose of the phosphodiesterase inhibitor dipyridamole
